Measurements as given in publication PMC10120535, “Identification of new 4-(6-oxopyridazin-1-yl)benzenesulfonamides as multi-target anti-inflammatory agents targeting carbonic anhydrase, COX-2 and 5-LOX enzymes: synthesis, biological evaluations and modelling insights” (Journal of Enzyme Inhibition and Medicinal Chemistry, 2023).

Key:
5-LOX = test: LOX inhibitory screening assay kit; format: biochemical; details: mean from 3 different assays
COX-1 = biological target: T1, COX-1 (Ovis aries, UniProt P05979); test: COX Inhibitor screening ELISA assay kit, COX-1
T1 sequence (P05979 25-600): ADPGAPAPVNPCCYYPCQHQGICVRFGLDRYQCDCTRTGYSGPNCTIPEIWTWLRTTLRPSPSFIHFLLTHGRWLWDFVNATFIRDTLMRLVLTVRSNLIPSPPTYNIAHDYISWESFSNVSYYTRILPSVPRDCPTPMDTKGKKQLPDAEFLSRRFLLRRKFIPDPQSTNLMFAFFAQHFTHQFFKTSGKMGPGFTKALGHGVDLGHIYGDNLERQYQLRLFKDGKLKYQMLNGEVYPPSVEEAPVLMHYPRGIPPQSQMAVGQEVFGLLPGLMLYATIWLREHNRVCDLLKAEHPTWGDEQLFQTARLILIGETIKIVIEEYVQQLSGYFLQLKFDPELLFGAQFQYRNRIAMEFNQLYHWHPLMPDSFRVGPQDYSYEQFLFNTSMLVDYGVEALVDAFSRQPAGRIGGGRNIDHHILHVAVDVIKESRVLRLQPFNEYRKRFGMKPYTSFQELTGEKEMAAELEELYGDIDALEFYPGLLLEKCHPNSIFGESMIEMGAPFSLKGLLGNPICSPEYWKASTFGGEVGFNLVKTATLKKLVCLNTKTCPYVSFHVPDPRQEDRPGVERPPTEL

COX-2 = biological target: T2, COX-2 (Homo sapiens, UniProt P35354); test: COX Inhibitor screening ELISA assay kit, COX-2
T2 sequence (P35354 18-604): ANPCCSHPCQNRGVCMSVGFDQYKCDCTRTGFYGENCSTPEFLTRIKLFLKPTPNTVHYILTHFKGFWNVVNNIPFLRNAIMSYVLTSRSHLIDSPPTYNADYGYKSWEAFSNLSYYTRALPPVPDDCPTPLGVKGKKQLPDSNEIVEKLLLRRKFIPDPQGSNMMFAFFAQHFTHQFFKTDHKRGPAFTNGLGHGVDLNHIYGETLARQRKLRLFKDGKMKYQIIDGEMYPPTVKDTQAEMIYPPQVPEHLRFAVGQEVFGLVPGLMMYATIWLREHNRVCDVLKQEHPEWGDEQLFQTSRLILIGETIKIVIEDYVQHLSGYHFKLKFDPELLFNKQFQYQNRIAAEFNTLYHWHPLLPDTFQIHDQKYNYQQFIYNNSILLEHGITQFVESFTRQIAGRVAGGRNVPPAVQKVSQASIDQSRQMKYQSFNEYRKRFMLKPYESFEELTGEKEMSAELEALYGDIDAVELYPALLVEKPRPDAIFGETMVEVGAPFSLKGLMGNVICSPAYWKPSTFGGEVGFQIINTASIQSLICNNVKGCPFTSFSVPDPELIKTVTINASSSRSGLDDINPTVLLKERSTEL

mice = test: acetic acid writhing test (analgesic activity); format: in vivo; details: for Number of writhing (20 min) (Mean ± SD): n = 5, control 40 ± 2.9
Excerpt: (§1) The experimental procedures adopted to perform the acetic acid-induced writhing assay for the analgesic activities,[45] Paw edoema assay for the anti-inflammatory activities,[46] as well as the acute ulcerogenic test[47] have been carried out as described previously.

rat paw edoema = test: carrageen-induced rat paw edoema assay (anti-inflammatory activity); format: in vivo; parameters: Anti-inflammatory activity (% inhibition of edoema) 3 h: concentration or dose not given beside the values; details: for FIF% change in paw height (Mean ± SD) 0 h / FIF% change in paw height (Mean ± SD) 1 h / FIF% change in paw height (Mean ± SD) 2 h / FIF% change in paw height (Mean ± SD) 3 h: n = 5
Excerpt: as §1

TNF-α = test: serum TNF-α level by ELISA after paw edoema test; format: in vivo, rat; details: compared to the positive control group, n = 5
Excerpt: (§2) ELISA assays were used to assess the serum level for the inflammatory mediators TNF-α (Kit Cat. No MBS355371, MyBioSource, USA), and IL-1β (Kit Cat. No MBS8825017, MyBioSource, USA) based on the manufacture instructions.[54]

IL-1β = test: serum IL-1β level by ELISA after paw edoema test; format: in vivo, rat; details: compared to the positive control group, n = 5
Excerpt: as §2

gastric tissue of rats = test: acute ulcerogenic test, histopathology of gastric tissue; format: in vivo; details: fasted rat stomach, H & E stain
Excerpt: as §1

Row | Structure (SMILES) | IC50 (5-LOX) [µM] | IC50 (COX-1) [µM] | IC50 (COX-2) [µM] | Analgesic activity (% protection) (mice) [%] | FIF% change in paw height (Mean ± SD) 0 h (rat paw edoema) [%] | FIF% change in paw height (Mean ± SD) 1 h (rat paw edoema) [%] | FIF% change in paw height (Mean ± SD) 2 h (rat paw edoema) [%] | Anti-inflammatory activity (% inhibition of edoema) 3 h (rat paw edoema) [%] | FIF% change in paw height (Mean ± SD) 3 h (rat paw edoema) [%] | Serum level of TNF-α (TNF-α) | Serum level of IL-1β (IL-1β) | Ulcerogenic effect on gastric tissue (histopathological examination) (gastric tissue of rats) | Number of writhing (20 min) (Mean ± SD) (mice)
1 | NS(=O)(=O)c1ccc(-n2nc(OCc3ccc([N+](=O)[O-])cc3)ccc2=O)cc1 [Compound 5b, 4–(3-((4-Nitrobenzyl)oxy)-6-oxopyridazin-1(6H)-yl)benzenesulfonamide] | 5 | 9.5 | 0.14 |  |  |  |  |  |  |  |  |  | 
2 | NS(=O)(=O)c1ccc(-n2nc(OS(=O)(=O)c3ccc(F)cc3)ccc2=O)cc1 [Compound 7f, 6-Oxo-1–(4-sulfamoylphenyl)-1,6-dihydropyridazin-3-yl 4-fluorobenzenesulfonate] | 6.5 | 8.5 | 0.11 |  |  |  |  |  |  |  |  |  | 
3 | CCS(=O)(=O)Oc1ccc(=O)n(-c2ccc(S(N)(=O)=O)cc2)n1 [Compound 7b, 6-Oxo-1–(4-sulfamoylphenyl)-1,6-dihydropyridazin-3-yl ethanesulfonate] | 2.5 | 12.6 | 0.06 | 65.0 | 0.5 ± 0.07 | 0.44 ± 0.09 | 0.58 ± 0.04 | 38.5 | 0.48 ± 0.03 | significantly lowered | significantly lowered | mild inflammation | 
4 | CS(=O)(=O)Oc1ccc(=O)n(-c2ccc(S(N)(=O)=O)cc2)n1 [Compound 7a, 6-Oxo-1–(4-sulfamoylphenyl)-1,6-dihydropyridazin-3-yl methanesulfonate] | 3 | 10.4 |  | 67.5 | 0.52 ± 0.04 | 0.46 ± 0.09 | 0.44 ± 0.05 | 56 | 0.34 ± 0.05 | significantly lowered | significantly lowered | normal texture | 
5 | O=C(O)Cc1ccccc1Nc1c(Cl)cccc1Cl [Diclofenac, reference compound] |  |  |  | 70.0 | 0.52 ± 0.04 | 0.28 ± 0.04 | 0.32 ± 0.04 | 59 | 0.32 ± 0.04 |  |  | inflammation and damage to the layers of the stomach | 12 ± 1.9
6 | Cc1ccc(S(=O)(=O)Oc2ccc(=O)n(-c3ccc(S(N)(=O)=O)cc3)n2)cc1 [Compound 7d, 6-Oxo-1–(4-sulfamoylphenyl)-1,6-dihydropyridazin-3-yl 4-methylbenzenesulfonate] | 3.5 | 8.4 | 0.08 |  |  |  |  |  |  |  |  |  | 
7 | NS(=O)(=O)c1ccc(-n2nc(O)ccc2=O)cc1 [Compound 3, 4–(3-Hydroxy-6-oxopyridazin-1(6H)-yl)benzenesulfonamide] | 2 | 11.5 | 0.07 |  |  |  |  |  |  |  |  |  | 
8 | NS(=O)(=O)c1ccc(-n2nc(OCc3ccccc3)ccc2=O)cc1 [Compound 5a, 4–(3-(Benzyloxy)-6-oxopyridazin-1(6H)-yl)benzenesulfonamide] | 7 | 5 | 0.11 |  |  |  |  |  |  |  |  |  | 
9 | NS(=O)(=O)c1ccc(-n2nc(OS(=O)(=O)c3ccccc3)ccc2=O)cc1 [Compound 7c, 6-Oxo-1–(4-sulfamoylphenyl)-1,6-dihydropyridazin-3-yl benzenesulfonate] | 4 | 8.4 | 0.08 |  |  |  |  |  |  |  |  |  | 
10 | Cc1ccc(-c2cc(C(F)(F)F)nn2-c2ccc(S(N)(=O)=O)cc2)cc1 [Celecoxib, reference compound] |  |  |  | 60.0 | 0.5 ± 0.07 | 0.44 ± 0.09 | 0.52 ± 0.04 | 38.5 | 0.48 ± 0.04 |  |  | normal texture | 16 ± 0.9
12 | COc1ccc(S(=O)(=O)Oc2ccc(=O)n(-c3ccc(S(N)(=O)=O)cc3)n2)cc1 [Compound 7e, 6-Oxo-1–(4-sulfamoylphenyl)-1,6-dihydropyridazin-3-yl 4-methoxybenzenesulfonate] | 5 | 6.5 | 0.09 |  |  |  |  |  |  |  |  |  | 
13 | N#Cc1ccc(COc2ccc(=O)n(-c3ccc(S(N)(=O)=O)cc3)n2)cc1 [Compound 5c, 4–(3-((4-Cyanobenzyl)oxy)-6-oxopyridazin-1(6H)-yl)benzenesulfonamide] | 7 | 6.5 | 0.07 |  |  |  |  |  |  |  |  |  | 
